Data: ChEMBL document CHEMBL4837228, “Generation and Biological Evaluation of Degraded Derivatives of the Three E/Z-Isomers of Yaku'amide B” (2021)

System: MCF7
Test: Growth inhibition of human MCF7 cells for 48 hrs by sulforhodamine B assay
Format: functional

Q: For CC/C(C)=C(\NC(=O)CNC(=O)C(C)(C)C(=O)[C@@H](C)CC(C)C)C(=O)N[C@@H](C)C(=O)N/C(C(=O)N[C@@H](C(=O)N[C@@H](C(=O)N[C@@H](C(=O)NCC(=O)N/C(C(=O)N[C@H](C)C(=O)N[C@@H](C(=O)N[C@H](C(=O)NC(C(=O)N[C@H](CN(C)C)C(C)C)=C(C)C)C(C)C)C(C)C)=C(\C)CC)C(C)(C)O)[C@@H](C)CC)C(C)C)=C(/C)CC, which GI50 is on record?
A: Its GI50 is 304 nM.

Q: How did the GI50 turn out when CC/C(C)=C(\NC(=O)[C@H](C)NC(=O)/C(NC(=O)CNC(=O)C(C)(C)C(=O)[C@@H](C)CC(C)C)=C(/C)CC)C(=O)N[C@@H](C(=O)N[C@@H](C(=O)N[C@@H](C(=O)N[C@H](C(=O)N/C(C(=O)N[C@H](C)C(=O)N[C@@H](C(=O)N[C@H](C(=O)NC(C(=O)N[C@H](CN(C)C)C(C)C)=C(C)C)C(C)C)C(C)C)=C(/C)CC)C(C)(C)O)C(C)(C)O)[C@@H](C)CC)C(C)C was run?
A: The GI50 was 47.7 nM.

Q: For CC/C(C)=C(\NC(=O)[C@H](C)NC(=O)/C(NC(=O)[C@@H](NC(=O)C(C)(C)C(=O)[C@@H](C)CC(C)C)[C@](C)(O)CC)=C(\C)CC)C(=O)N[C@@H](C(=O)N[C@@H](C(=O)N[C@@H](C(=O)N[C@H](C(=O)N/C(C(=O)N[C@H](C)C(=O)N[C@@H](C(=O)N[C@H](C(=O)NC(C(=O)N[C@H](CN(C)C)C(C)C)=C(C)C)C(C)C)C(C)C)=C(\C)CC)C(C)(C)O)C(C)(C)O)[C@@H](C)CC)C(C)C, which GI50 is on record?
A: The GI50 was 57.4 nM.

Q: CC/C(C)=C(\NC(=O)CNC(=O)C(C)(C)C(=O)[C@@H](C)CC(C)C)C(=O)N[C@@H](C)C(=O)N/C(C(=O)N[C@@H](C(=O)N[C@@H](C(=O)N[C@@H](C(=O)N[C@H](C(=O)N/C(C(=O)N[C@H](C)C(=O)N[C@@H](C(=O)N[C@H](C(=O)NC(C(=O)N[C@H](CN(C)C)C(C)C)=C(C)C)C(C)C)C(C)C)=C(\C)CC)C(C)(C)O)C(C)(C)O)[C@@H](C)CC)C(C)C)=C(/C)CC was tested. Which GI50 did it give?
A: Its GI50 is 26.8 nM.

Q: With CC/C(C)=C(\NC(=O)[C@@H](NC(=O)[C@H](NC(=O)[C@H](NC(=O)[C@H](NC(=O)/C(NC(=O)[C@H](C)NC(=O)/C(NC(=O)[C@@H](NC(=O)C(C)(C)C(=O)[C@@H](C)CC(C)C)[C@](C)(O)CC)=C(/C)CC)=C(/C)CC)C(C)C)[C@@H](C)CC)C(C)(C)O)C(C)(C)O)C(=O)N[C@H](C)C(=O)N[C@@H](C(=O)N[C@H](C(=O)NC(C(=O)N[C@H](CN(C)C)C(C)C)=C(C)C)C(C)C)C(C)C as the molecule, how does the GI50 read?
A: The GI50 was 25.4 nM.

Q: With CC/C(C)=C(\NC(=O)[C@H](C)NC(=O)/C(NC(=O)[C@@H](NC(=O)C(C)(C)C(=O)[C@@H](C)CC(C)C)[C@](C)(O)CC)=C(/C)CC)C(=O)N[C@@H](C(=O)N[C@@H](C(=O)N[C@@H](C(=O)N[C@H](C(=O)N/C(C(=O)N[C@H](C)C(=O)N[C@@H](C(=O)N[C@H](C(=O)NC(C(=O)N[C@H](CN(C)C)C(C)C)=C(C)C)C(C)C)C(C)C)=C(/C)CC)C(C)(C)O)C(C)(C)O)[C@@H](C)CC)C(C)C as the molecule, how does the GI50 read?
A: Its GI50 is 24.6 nM.

Q: For CC/C(C)=C(\NC(=O)[C@@H](NC(=O)[C@H](NC(=O)[C@H](NC(=O)[C@H](NC(=O)/C(NC(=O)[C@H](C)NC(=O)/C(NC(=O)CNC(=O)C(C)(C)C(=O)[C@@H](C)CC(C)C)=C(/C)CC)=C(/C)CC)C(C)C)[C@@H](C)CC)C(C)(C)O)C(C)(C)O)C(=O)N[C@H](C)C(=O)N[C@@H](C(=O)N[C@H](C(=O)NC(C(=O)N[C@H](CN(C)C)C(C)C)=C(C)C)C(C)C)C(C)C, which GI50 is on record?
A: Its GI50 is 28.2 nM.

Q: How did the GI50 turn out when CC/C(C)=C(\NC(=O)[C@@H](NC(=O)[C@H](NC(=O)[C@H](NC(=O)[C@H](NC(=O)/C(NC(=O)[C@H](C)NC(=O)/C(NC(=O)[C@@H](NC(=O)C(C)(C)C(=O)[C@@H](C)CC(C)C)[C@](C)(O)CC)=C(\C)CC)=C(/C)CC)C(C)C)[C@@H](C)CC)C(C)(C)O)C(C)(C)O)C(=O)N[C@H](C)C(=O)N[C@@H](C(=O)N[C@H](C(=O)NC(C(=O)N[C@H](CN(C)C)C(C)C)=C(C)C)C(C)C)C(C)C was run?
A: Its GI50 is 18.2 nM.
